Measured values published in article PMC12669040, “Tumour-specific STING agonist synthesis via a two-component prodrug system” (Nature Chemistry, 2025).
pEC50: −log10 of the molar value. Values joined by “and” are separate entries in the source; they are usually repeats but may differ in a detail not shown here. Identical values can stand only once.

Key:
[1] = tested on: THP-1 Lucia ISG cells (interferon pathway); assay: Potency test of purified dimers on THP-1 Lucia ISG reporter cells; assay type: cell-based, human; conditions: for Raw readings: replicates 1-3, duplicate wells
Procedure: Cells were pelleted (150g, 10 min) and resuspended in the growth medium (40% conditioned) at a density of 1 × 10^6 cells ml^−1. The cell suspension was dispensed (50 µl each well) into a lidded white 96-well plate (BrandTech 781665). Test compounds or DMSO control were diluted in the growth medium and sterilized by filtering through 0.22-µm polyethersulfone (PES) membranes (Merck SLGP033RS). […] Upon cooling down to room temperature, 50 µl of reconstituted luciferase substrate (InvivoGen QUANTI-Luc) was added to each well via the injector of the plate reader (Molecular Devices SpectraMax i3x), and the luminescence output was recorded (4 s delay, 0.1 s integration). Raw signals were divided by the averaged signal of the DMSO-treated control wells and reported in relative luminescence unit (RLU). The dose–response curve of each replicate was fitted individually using the standard 4PL model (GraphPad Prism). The EC50 value of each compound was averaged from three independent experiments and reported as mean ± s.e.m.

[2] = tested on: STING pathway effectors (pSTING, pTBK1, pIRF3) in THP-1 Lucia ISG cells; assay: Western blots of STING pathway activation; assay type: cell-based, human; conditions: 5 μM
Procedure: THP-1 Lucia ISG cells were maintained as described above. […] Cells were treated with cycloheximide (50 µg ml^−1) and incubated for 50 min at 37 °C. Treated cells were then combined with the growth medium containing SC2S dimer (5 µM final concentration) to 1 × 10^6 cells ml^−1 and incubated at 37 °C. At each timepoint, a portion (3 ml) of the cell suspension was withdrawn. Withdrawn cells were pelleted (300g, 3 min), washed with PBS (1 ml), pelleted again (300g, 3 min) and resuspended to a density of 1 × 10^7 cells ml^−1 in ice-cold lysis buffer (25 mM Tris pH 7.6, 150 mM NaCl, 1% NP-40, 1% sodium deoxycholate and 0.1% SDS) supplied with protease/phosphatase inhibitor tablets (Pierce A32961) and freshly prepared phenylmethylsulfonyl fluoride (1 mM). Lysates were further disrupted by sonication at low power (5 s × 3 cycles). Sonicated lysates were clarified by centrifugation at 4 °C (13,000g, 5 min). […] Samples were reduced and denatured at 95 °C for 5 min before being separated on a precast polyacrylamide gel (Invitrogen NuPAGE 4–12% Bis-Tris, 20 µg total protein per lane). Protein bands were then transferred to a polyvinylidene difluoride membrane (Invitrogen iBlot2). […]

Hs578T xenografts = assay: Hs578T zebrafish xenograft model; conditions: for 2dpi phagocytosis: individual larvae; for M1 (M1/M2) / M2 (M1/M2) / Caspase-3 / TAM / Tumor Size: replicate values

## COc1cc2sc(C(=O)CCC(=O)O)cc2cc1SCCSc1cc2cc(C(=O)CCC(=O)O)sc2cc1OC [SC2S]
[1]; Homo sapiens, THP1-Lucia ISG, 24 h, Concentration 0.048828 μM, three replicates, read-out: Processed reporter response per replicate (reading relative to DMSO)
  fold induction at 0.048828 µM: 1.32
[1]; Homo sapiens, THP1-Lucia ISG, 24 h, Concentration 1.5625 μM, three replicates, read-out: Processed reporter response per replicate (reading relative to DMSO)
  fold induction at 1.5625 µM: 332
[1]; Homo sapiens, THP1-Lucia ISG, 24 h, Concentration 3.125 μM, three replicates, read-out: Processed reporter response per replicate (reading relative to DMSO)
  fold induction at 3.125 µM: 425
[1]; Homo sapiens, THP1-Lucia ISG, 24 h, Concentration 6.25 μM, three replicates, read-out: Processed reporter response per replicate (reading relative to DMSO)
  fold induction at 6.25 µM: 434
[1]; Homo sapiens, THP1-Lucia ISG, 24 h, Concentration 12.5 μM, three replicates, read-out: Processed reporter response per replicate (reading relative to DMSO)
  fold induction at 12.5 µM: 407
[1]; Homo sapiens, THP1-Lucia ISG, 24 h, three biological replicates, read-out: EC50, THP-1 Lucia interferon reporter
  pEC50: 6.15
[1]; SC2S 0.024414 uM
  Raw readings: 620 RLU and 583 RLU and 1367 RLU and 1519 RLU and 365 RLU and 638 RLU
[1]; SC2S 0.048828 uM
  Raw readings: 577 RLU and 837 RLU and 1473 RLU and 1276 RLU and 668 RLU and 425 RLU
[1]; SC2S 0.097656 uM
  Raw readings: 783 RLU and 620 RLU and 2316 RLU and 2552 RLU and 1504 RLU and 372 RLU
[1]; SC2S 0.195313 uM
  Raw readings: 2302 RLU and 2526 RLU and 10005 RLU and 13263 RLU and 15158 RLU and 614 RLU
[1]; SC2S 0.390625 uM
  Raw readings: 13233 RLU and 15402 RLU and 73880 RLU and 85525 RLU and 96208 RLU and 759 RLU
[1]; SC2S 0.78125 uM
  Raw readings: 80951 RLU and 92499 RLU and 198651 RLU and 223105 RLU and 189225 RLU and 37417 RLU
[1]; SC2S 1.5625 uM
  Raw readings: 175164 RLU and 179560 RLU and 265669 RLU and 303539 RLU and 222866 RLU and 166854 RLU
[1]; SC2S 3.125 uM
  Raw readings: 222262 RLU and 231080 RLU and 301434 RLU and 333311 RLU and 245937 RLU and 322808 RLU
[1]; SC2S 6.25 uM
  Raw readings: 230364 RLU and 232723 RLU and 323434 RLU and 349356 RLU and 281517 RLU and 362047 RLU
[1]; SC2S 12.5 uM
  Raw readings: 216991 RLU and 217865 RLU and 313187 RLU and 335098 RLU and 238105 RLU and 315297 RLU
[2]
  phosphorylation of major STING pathway proteins: confirmed the phosphorylation of major STING pathway proteins
Hs578T xenografts; experiment 230522
  2dpi phagocytosis: 35 and 30 and 42 and 17 and 0* and 22 and 16
  Caspase-3: 1.443 and 1.289 and 1.712 and 1.324 and 1.988 and 1.517 and 1.448 and 1.484 and 1.486 and 2.204 and 2.224
  TAM: 2.1705 and 1.352 and 2.571 and 2.448 and 1.557 and 1.167
  Tumor Size: 1.033 and 0.4622 and 0.7179 and 0.9145 and 1.19 and 0.9204 and 0.6815 and 0.7277 and 0.5409 and 0.7788
Hs578T xenografts; experiment 230726
  2dpi phagocytosis: 62 and 48 and 23 and 18 and 44 and 12 and 10 and 20
  Caspase-3: 1.045 and 1.374 and 1.091 and 2.171 and 0.9199 and 1.451 and 2.115
  TAM: 1.204 and 2.4711 and 1.9907 and 1.109 and 1.5815 and 1.362 and 3.515 and 1.246
  Tumor Size: 0.495 and 0.08364 and 0.7374 and 1.174 and 0.7912 and 0.9371 and 0.8603
Hs578T xenografts; 2dpi
  M1 (M1/M2): 56.4103 and 69.5652 and 75.5556 and 67.5 and 90 and 84.6154 and 78.7234 and 82.8947 and 70.4918 and 72.549 and 65.3846 and 65 and 82.6087 and 55.5556 and 72.2222
  M2 (M1/M2): 43.5897 and 30.4348 and 24.4444 and 32.5 and 10 and 15.3846 and 21.2766 and 17.1053 and 29.5082 and 27.451 and 34.6154 and 35 and 17.3913 and 44.4444 and 27.7778
Hs578T xenografts; 4 dpi, MSA2 15 μM, SC2S 0.62 μM, β-GlcA-N1/E4 20 μM each
  apoptosis (activated Caspase 3) in xenografts: significantly induced apoptosis
Hs578T xenografts; 4dpi
  M1 (M1/M2): 36.3636 and 58.3333 (2×) and 42.8571 and 37.5 and 12.5 and 25 and 54.5455 and 41.1765 and 31.4286 and 70.3704 and 40 and 39.1304 and 37.037 and 33.3333
  M2 (M1/M2): 63.6364 and 41.6667 (2×) and 57.1429 and 62.5 and 87.5 and 75 and 45.4545 and 58.8235 and 68.5714 and 29.6296 and 60 and 60.8696 and 62.963 and 66.6667
